Source: PubChem BioAssay AID652230 (The Scripps Research Institute Molecular Screening Center, 2013)
The source made the active and inactive calls.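 How the source made its calls: active means IC50 below 10 µM for blocking the phosphatase PP5; inactive means IC50 at or above 10 µM.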

Target: Serine/threonine-protein phosphatase 5 (Homo sapiens) (UniProt P53041)
Assay: PP5 inhibitor potency, OMFP dephosphorylation, dose response, selectivity assay for PP1 inhibitor project, biochemical, fluorescence, OMFP substrate, powder samples, set 2 (AID 652230)
Conditions: purified PP5c

Serine/threonine-protein phosphatase 5 (Homo sapiens), sequence (P53041 whole entry, looked up): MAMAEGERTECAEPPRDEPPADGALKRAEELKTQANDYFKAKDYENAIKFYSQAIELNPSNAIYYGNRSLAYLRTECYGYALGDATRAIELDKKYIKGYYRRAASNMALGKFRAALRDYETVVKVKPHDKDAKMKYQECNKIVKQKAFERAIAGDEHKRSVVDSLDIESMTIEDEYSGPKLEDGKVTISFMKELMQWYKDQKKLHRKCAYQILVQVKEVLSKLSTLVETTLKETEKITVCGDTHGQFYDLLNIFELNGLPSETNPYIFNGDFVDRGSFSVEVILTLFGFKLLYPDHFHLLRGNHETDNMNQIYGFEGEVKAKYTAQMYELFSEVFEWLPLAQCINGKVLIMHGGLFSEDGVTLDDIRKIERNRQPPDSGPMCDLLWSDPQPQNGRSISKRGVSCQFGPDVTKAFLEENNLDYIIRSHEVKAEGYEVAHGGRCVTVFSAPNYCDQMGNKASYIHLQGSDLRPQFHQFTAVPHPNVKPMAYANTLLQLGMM

Row | IC50 | SMILES
1 | inactive | CN1CCN([C@H](c2ncccn2)c2ccc3cccnc3c2O)CC1
2 | inactive | CN1CCN([C@@H](c2ncccn2)c2ccc3cccnc3c2O)CC1
